# Source: patent US8263638B2, “Dosing regimens for ion channel modulating compounds” (priority 2004, dated 2012)
# Legend:
# [1] = system: atrial fibrillation of 3 to 72 h duration; assay: Randomized, double-blind, step-dose, placebo-controlled study in acute atrial fibrillation (Example 2); assay type: in vivo, human
# Procedure: This was a randomized, double-blind, step-dose, placebo-controlled, parallel group study on humans. Fifty-six patients with atrial fibrillation of 3 to 72 h duration were randomized to one of two COMPOUND A dose groups or to placebo. The two COMPOUND A groups were RSD-1 (0.5 mg/kg followed by 1.0 mg/kg) or RSD-2 (2.0 mg/kg followed by 3.0 mg/kg), doses given by intravenous infusion over 10 min. The primary endpoint was termination of atrial fibrillation during a 10-min infusion or the subsequent 30-min. Secondary endpoints included the number of patients in sinus rhythm at 0.5, 1 and 24 h post-infusion and time to conversion to sinus rhythm. […] COMPOUND A converted acute atrial fibrillation to sinus rhythm.
# Patients in this study had to have a rhythm of sustained atrial fibrillation (AF) with a duration of 3 to 72 h at the time of randomization. Patients were randomized to one of three groups and in each group received up to two 10-min intravenous infusions, separated by 30 min. Infusions were placebo followed by placebo, 0.5 mg/kg followed by 1.0 mg/kg COMPOUND A, or 2.0 […] COMPOUND A. The second dose in each group was administered only if AF was present 30 min after completion of the first dose. Doses for patients weighing>113 kg were capped as if the patient weight was 113 kg.
# A Holter rhythm strip continuously monitored ECG, vital signs (blood pressure and heart rate, BP and HR, respectively) and O2 saturation were recorded every 2 min from the start of infusion to 5 min after, as well as at 15, 30, 60, 120, 240, 360, and 480 min and at discharge and one-week follow-up. Twelve-lead ECGs were obtained before dosing and every minute during infusion to 5 min after, as well as at 15, 30, 60, 120, 240, 360, and 480 min and at discharge, 24 h and one-week follow-up, and at the time of arrhythmia termination or significant rhythm changes. Venous blood samples were drawn for COMPOUND A plasma concentrations at 0, 15, 30, 120, 240, 480 min discharge and at AF termination or significant adverse events.
# Fifty-five patients were evaluated for efficacy. Data are presented as mean±SD, median with interquartile range (IQR), all tests were performed as two sided and 95% confidence interval (CI) were produced; p<0.05 was considered statistically significant unless stated otherwise. Analysis of the relationship between termination of AF and treatment was performed using a chi-square analysis. In cases of small cell frequencies, the Fisher's exact test was used. A Cochran-Armitage test statistic with table scores was used to test the ascending dose evaluation of efficacy.
# The time to conversion from the start of the first infusion was analyzed by the Cox regression method of event time analysis and one-way ANOVA. Assessment of the significance of time point values and mean change from baseline to each follow-up reading of ECG intervals (QRS, QT, QTc), BP, and HR were made within dose groups using paired t tests, and comparisons among dose groups were made using a one-way ANOVA.
# [2] = system: atrial fibrillation of 3 hours to 45 days; assay: Conversion of recent onset atrial fibrillation to sinus rhythm (Example 3); assay type: in vivo, human; details: for Number of Patients Converted to Sinus Rhythm / Patients (%) Converted to Sinus Rhythm: within 90 minutes
# Procedure: The primary endpoint of this study was the proportion of patients with atrial fibrillation duration of 3 hours to 7 days who had treatment-induced conversion to sinus rhythm within 90 minutes of treatment. Secondary endpoints included the time-to-conversion of atrial fibrillation to sinus rhythm in patients with atrial fibrillation duration of 3 hours to 7 days; the proportion of patients with atrial fibrillation of 8 to 45 days who had treatment-induced conversion to sinus rhythm within 90 minutes of treatment, and the proportion of patients in the entire group with atrial fibrillation of 3 hours to 45 days who had treatment-induced conversion to sinus rhythm within 90 minutes of treatment.
# 336 patients were randomized in a 2:1 ratio of COMPOUND A to placebo (221 patients received COMPOUND A and 115 patients received placebo) and stratified by atrial fibrillation duration of 3 hours to 7 days and 8 to 45 days.
# A first 10-minute infusion of a test compound (placebo or 3 mg/kg of COMPOUND A) was given to each patient. A second 10-minute infusion (placebo or 2 mg/kg of COMPOUND A) was given 15 minutes later if atrial fibrillation was not terminated. Safety was assessed by the incidence of adverse events, vital signs, laboratory data, ECG and holter monitoring.
# [3] = End infusion 1, 0.5 and 1.0 mg/kg
# [4] = End infusion 1, 2.0 and 3.0 mg/kg
# [5] = End infusion 2, 0.5 and 1.0 mg/kg
# [6] = End infusion 2, 2.0 and 3.0 mg/kg
# [7] = 30-day interval following administration
# [8] = AF 8-45 days, 3 mg/kg then 2 mg/kg
# [9] = AF 3 hr-7 days, 3 mg/kg then 2 mg/kg
structure (smiles),measurement,setting,value
"COc1ccc(CCO[C@@H]2CCCC[C@H]2N2CC[C@@H](O)C2)cc1OC.Cl [COMPOUND A, (1R,2R)-2-[(3R)-hydroxypyrrolidinyl]-1-(3,4-dimethoxyphenethoxy)cyclohexane monohydrochloride]",net efficacy for conversion of recent onset AF,[1]; 61% to 5% (placebo),56%
same,median time for termination of AF from the start of the first infusion,[1]; COMPOUND A treatment groups (FIG. 1),11 min
same,HEART RATE,[1]; [3],104 ± 7 BPM
same,QRS,[1]; [3],86 ± 3 ms
same,QTc,[1]; [3],419 ± 6 ms
same,HEART RATE,[1]; [4],98 ± 5 BPM
same,QRS,[1]; [4],95 ± 3 ms
same,QTc,[1]; [4],449 ± 9 ms
same,HEART RATE,[1]; [5],107 ± 6 BPM
same,QRS,[1]; [5],90 ± 6 ms
same,QTc,[1]; [5],414 ± 11 ms
same,HEART RATE,[1]; [6],104 ± 6 BPM
same,QRS,[1]; [6],99 ± 5 ms
same,QTc,[1]; [6],447 ± 17 ms
same,cumulative AF termination within 30 min of infusion,[1]; RSD-1: 0.5 mg/kg followed by 1.0 mg/kg i.v.,11%
same,patients in sinus rhythm (excluding those electrically cardioverted) at 24 h post infusion,[1]; RSD-1: 0.5 + 1.0 mg/kg,56%
same,patients in sinus rhythm at 30 min post-infusion,[1]; RSD-1: 0.5 + 1.0 mg/kg,11%
same,patients in sinus rhythm at 1 h post infusion,[1]; RSD-1: 0.5 + 1.0 mg/kg,11%
same,median time to conversion to sinus rhythm from the start of the first infusion,"[1]; RSD-1, five eventual responders",166 min
same,patients reporting cardiac disorders (adverse events),[1]; RSD-1 group,22.2%
same,electrical cardioversion attempted within the study period (24 h),[1]; RSD-1 treated,50%
same,electrical cardioversion successful,[1]; RSD-1 treated,100%
same,cumulative AF termination within 30 min of infusion,[1]; RSD-2: 2.0 mg/kg followed by 3.0 mg/kg i.v.,61%
same,patients in sinus rhythm (excluding those electrically cardioverted) at 24 h post infusion,[1]; RSD-2: 2.0 + 3.0 mg/kg,79%
same,patients in sinus rhythm at 30 min post-infusion,[1]; RSD-2: 2.0 + 3.0 mg/kg,56%
same,patients in sinus rhythm at 1 h post infusion,[1]; RSD-2: 2.0 + 3.0 mg/kg,53%
same,median time to conversion to sinus rhythm from the start of the first infusion,"[1]; RSD-2, eleven responders",14 min
same,mean heart rate,"[1]; RSD-2 dose, T1=15 min (baseline mean 106)",90 beats per min
same,median time to termination of AF after start of the first infusion,[1]; RSD-2 group,11 min
same,patients reporting cardiac disorders (adverse events),[1]; RSD-2 group,16.7%
same,electrical cardioversion attempted within the study period (24 h),[1]; RSD-2 treated,22%
same,electrical cardioversion successful,[1]; RSD-2 treated,100%
same,"QT interval, first available ECG records after conversion to sinus rhythm","[1]; human, in vivo",366 ± 28 ms
same,"QTc interval, first available ECG records after conversion to sinus rhythm","[1]; human, in vivo",427 ± 19 ms
same,drug related proarrhythmia,[1]; in vivo,no instances
same,effect on QTc or QRS intervals compared to placebo,[1]; infusion,did not significantly prolong
same,patients with recurrence of atrial fibrillation (serious adverse event),[2]; [7],6%
same,patients with serious adverse events,[2]; [7],13%
same,converted patients relapsed within 24 hrs of administration,[2]; 3 hours to 7 days group converters,one
same,median time to conversion,"[2]; 3 hours to 7 days group, seventy-five converters",eleven
same,Number of Patients Converted to Sinus Rhythm,[2]; [8],6
same,Patients (%) Converted to Sinus Rhythm,[2]; [8],8%
same,Number of Patients Converted to Sinus Rhythm,[2]; [9],75
same,Patients (%) Converted to Sinus Rhythm,[2]; [9],52%
same,Number of Patients Converted to Sinus Rhythm,"[2]; Entire Group, AF 3 hr-45 days",83
same,Patients (%) Converted to Sinus Rhythm,"[2]; Entire Group, AF 3 hr-45 days",38%
same,drug-related Torsades de Pointes,[2]; in vivo,no cases
same,patients with transient alteration in taste,[2]; in vivo,30%
